Source: patent US20070292908A1, “Method for Detecting Streptococcus Agalactiae Using Alpha-Glucosidase Activity” (BIOMERIEUX, priority 2004, published 2007)
Each block holds one molecule with its values, some of them ahead of it.

Assays:
[1] = system: Streptococcus agalactiae; experiment: Number of strains detected as a function of the concentration of α-glucosidase substrate; format: cell-based; conditions: positive when I≧0.6, 8 strains
Text: The above protocol was repeated, with the exception that the concentration of enzymatic substrate was varied.
Table 2 below gives the number of strains detected (considered to be positive when I≧0.6) as a function of the concentration of substrate.

[2] = system: Streptococcus agalactiae; experiment: Detection of Streptococcus agalactiae strains on reaction media containing an α-glucosidase enzymatic substrate; format: cell-based; conditions: substrate 0.1 g/l; for intensity (I) of coloration: arbitrary scale 0 to 4
Description: The reaction media were prepared by mixing heart-brain extract (4.84 g/l; Solabia), meat infusion (1.96 g/l; Solabia), biothione (1 g/l; Solabia), biotrypcase (7.2 g/l; Solabia), sodium carbonate (0.3 g/l; VWR), sodium pyruvate (2 g/l; Fluka), HEPES buffer (0.4 g/l; Sigma), lactalbumin peptone (2 g/l; DMV), glucose (1 g/l; Merck), American agar (2 g/l; Sobigel) and European agar (12 g/l; Roko).
The media were then poured into a Petri dish for subsequent inoculation with bacterial strains.
Eight Streptococcus agalactiae strains derived from the applicant's collection, suspended in physiological saline, were inoculated so as to give isolated colonies on each of the media. The dishes were then incubated at 37° C. for 48 hours. The colonies formed are examined visually after 18, 24 and more than 40 hours of incubation. The coloration of these colonies, the growth and also the intensity of this coloration were noted.
The results are given in table 1 below and are expressed: • in terms of growth (G) with the size being indicated in mm, • in terms of intensity (1) of coloration based on an arbitrary scale ranging from 0 to 4, 0 corresponding to an absence of activity and 4 corresponding to the presence of a very intense coloration, • in terms of color (Co) with T=turquoise, R=pink or red, Gr=green, Mg=magenta, • according to the incubation time in hours (T).

[3] = substrate 100 mg/l, incubation 24 h
[4] = substrate 100 mg/l, incubation 48 h
[5] = substrate 200 mg/l, incubation 24 h
[6] = substrate 200 mg/l, incubation 48 h
[7] = substrate 300 mg/l, incubation 24 h
[8] = substrate 300 mg/l, incubation 48 h
[9] = strain 0008200, 18 h incubation
[10] = strain 0008200, 24 h incubation
[11] = strain 0008200, >40 h incubation
[12] = strain 0008206, 18 h incubation
[13] = strain 0008206, 24 h incubation
[14] = strain 0008206, >40 h incubation
[15] = strain 0101060, 18 h incubation
[16] = strain 0101060, 24 h incubation
[17] = strain 0101060, >40 h incubation
[18] = strain 7611003, 18 h incubation
[19] = strain 7611003, 24 h incubation
[20] = strain 7611003, >40 h incubation
[21] = strain 7701031, 18 h incubation
[22] = strain 7701031, 24 h incubation
[23] = strain 7701031, >40 h incubation
[24] = strain 7702055, 18 h incubation
[25] = strain 7702055, 24 h incubation
[26] = strain 7702055, >40 h incubation
[27] = strain 8709013, 18 h incubation
[28] = strain 8709013, 24 h incubation
[29] = strain 8709013, >40 h incubation
[30] = strain 8904053, 18 h incubation
[31] = strain 8904053, 24 h incubation
[32] = strain 8904053, >40 h incubation

number of strains detected [1, 3]: 1/8 | number of strains detected [1, 4]: 7/8 | number of strains detected [1, 5]: 5/8 | number of strains detected [1, 6]: 8/8 | number of strains detected [1, 7]: 6/8 | number of strains detected [1, 8]: 8/8 | intensity (I) of coloration ([2]; strain 0008200, 18 h): 0.1 | growth (G), size [2, 9]: 0.7 mm | intensity (I) of coloration ([2]; strain 0008200, 24 h): 0.3 | growth (G), size [2, 10]: 0.7 mm | intensity (I) of coloration ([2]; strain 0008200, >40 h): 1.7 | growth (G), size [2, 11]: 0.7 mm | intensity (I) of coloration ([2]; strain 0008206, 18 h): 0.3 | growth (G), size [2, 12]: 0.7 mm | intensity (I) of coloration ([2]; strain 0008206, 24 h): 0.5 | growth (G), size [2, 13]: 0.8 mm | intensity (I) of coloration ([2]; strain 0008206, >40 h): 2 | growth (G), size [2, 14]: 1.2 mm | intensity (I) of coloration ([2]; strain 0101060, 18 h): 0.5 | growth (G), size [2, 15]: 0.4 mm | intensity (I) of coloration ([2]; strain 0101060, 24 h): 0.8 | growth (G), size [2, 16]: 0.5 mm | intensity (I) of coloration ([2]; strain 0101060, >40 h): 3 | growth (G), size [2, 17]: 0.7 mm | intensity (I) of coloration ([2]; strain 7611003, 18 h): 0.5 | growth (G), size [2, 18]: 1 mm | intensity (I) of coloration ([2]; strain 7611003, 24 h): 0.8 | growth (G), size [2, 19]: 1 mm | intensity (I) of coloration ([2]; strain 7611003, >40 h): 2 | growth (G), size [2, 20]: 1.3 mm | growth (G), size [2, 21]: 0.5 mm | growth (G), size [2, 22]: 0.7 mm | intensity (I) of coloration ([2]; strain 7701031, >40 h): 0.5 | growth (G), size [2, 23]: 1.2 mm | growth (G), size [2, 24]: 0.7 mm | intensity (I) of coloration ([2]; strain 7702055, 24 h): 0.3 | growth (G), size [2, 25]: 1 mm | intensity (I) of coloration ([2]; strain 7702055, >40 h): 2.3 | growth (G), size [2, 26]: 1.7 mm | growth (G), size [2, 27]: 0.5 mm | growth (G), size [2, 28]: 0.5 mm | intensity (I) of coloration ([2]; strain 8709013, >40 h): 0.8 | growth (G), size [2, 29]: 0.7 mm | growth (G), size [2, 30]: 0.7 mm | intensity (I) of coloration ([2]; strain 8904053, 24 h): 0.3 | growth (G), size [2, 31]: 0.7 mm | intensity (I) of coloration ([2]; strain 8904053, >40 h): 1.7 | growth (G), size [2, 32]: 0.8 mm
Molecule: OC[C@H]1O[C@H](Oc2c[nH]c3cc(Br)ccc23)[C@H](O)[C@@H](O)[C@@H]1O [RedA-alpha-Glu, 6-bromo-3-indolyl-α-D-glucopyranoside]

Molecule: 5-bromo-4-chloro-3-indolyl-N-methyl-α-D-glucopyranoside [GreenA-alpha-Glu]
number of strains detected [1, 3]: 6/8 | number of strains detected [1, 4]: 8/8 | number of strains detected [1, 5]: 7/8 | number of strains detected [1, 6]: 8/8 | number of strains detected [1, 7]: 7/8 | number of strains detected [1, 8]: 7/8 | intensity (I) of coloration ([2]; strain 0008200, 18 h): 0.5 | growth (G), size [2, 9]: 0.7 mm | intensity (I) of coloration ([2]; strain 0008200, 24 h): 0.8 | growth (G), size [2, 10]: 0.7 mm | intensity (I) of coloration ([2]; strain 0008200, >40 h): 2 | growth (G), size [2, 11]: 0.7 mm | intensity (I) of coloration ([2]; strain 0008206, 18 h): 0.6 | growth (G), size [2, 12]: 0.7 mm | intensity (I) of coloration ([2]; strain 0008206, 24 h): 1 | growth (G), size [2, 13]: 0.7 mm | intensity (I) of coloration ([2]; strain 0008206, >40 h): 2 | growth (G), size [2, 14]: 0.8 mm | intensity (I) of coloration ([2]; strain 0101060, 18 h): 0.8 | growth (G), size [2, 15]: 0.3 mm | intensity (I) of coloration ([2]; strain 0101060, 24 h): 1.7 | growth (G), size [2, 16]: 0.4 mm | intensity (I) of coloration ([2]; strain 0101060, >40 h): 3.5 | growth (G), size [2, 17]: 0.5 mm | intensity (I) of coloration ([2]; strain 7611003, 18 h): 2 | growth (G), size [2, 18]: 1 mm | intensity (I) of coloration ([2]; strain 7611003, 24 h): 2 | growth (G), size [2, 19]: 1.3 mm | intensity (I) of coloration ([2]; strain 7611003, >40 h): 3 | growth (G), size [2, 20]: 1.7 mm | growth (G), size [2, 21]: 0.5 mm | intensity (I) of coloration ([2]; strain 7701031, 24 h): 0.3 | growth (G), size [2, 22]: 0.7 mm | intensity (I) of coloration ([2]; strain 7701031, >40 h): 0.8 | growth (G), size [2, 23]: 1.5 mm | intensity (I) of coloration ([2]; strain 7702055, 18 h): 1 | growth (G), size [2, 24]: 0.7 mm | intensity (I) of coloration ([2]; strain 7702055, 24 h): 2 | growth (G), size [2, 25]: 0.8 mm | intensity (I) of coloration ([2]; strain 7702055, >40 h): 3 | growth (G), size [2, 26]: 1.7 mm | intensity (I) of coloration ([2]; strain 8709013, 18 h): 0.5 | growth (G), size [2, 27]: 0.4 mm | intensity (I) of coloration ([2]; strain 8709013, 24 h): 1 | growth (G), size [2, 28]: 0.5 mm | intensity (I) of coloration ([2]; strain 8709013, >40 h): 2.7 | growth (G), size [2, 29]: 0.7 mm | intensity (I) of coloration ([2]; strain 8904053, 18 h): 0.5 | growth (G), size [2, 30]: 0.7 mm | intensity (I) of coloration ([2]; strain 8904053, 24 h): 0.8 | growth (G), size [2, 31]: 0.7 mm | intensity (I) of coloration ([2]; strain 8904053, >40 h): 2.3 | growth (G), size [2, 32]: 1 mm
